Reference: patent US10183047B2, “Chromium-containing compositions in combination with Phyllanthus emblica and shilajit having synergistic effects for improving endothelial function and cardiovascular health” (Natreon, Inc., priority 2014, dated 2019)

Key:
lipid profile = experiment: Lipid profile (TC, HDL-C, LDL-C, TG, VLDL-C), type 2 diabetics; type: in vivo, human; details: for HDL / LDL / TC / TG: DM, 400 mcg; for Mean percentage change in HDL-C / Mean percentage change in LDL-C / Mean percentage change in Total Cholesterol / Mean percentage change in Triglycerides / HDL-C Post Tt / LDL-C Post Tt / Total Cholesterol Post Tt / Triglycerides Post Tt / HDL-C Pre Tt / LDL-C Pre Tt / Total Cholesterol Pre Tt / Triglycerides Pre Tt: type 2 diabetics (Example 3), chromium products 400 mcg; for Mean percentage change in HDL-C / Mean percentage change in LDL-C / Mean percentage change in Total Cholesterol / Mean percentage change in Triglycerides: 12 weeks of treatment; for HDL-C Post Tt / LDL-C Post Tt / Total Cholesterol Post Tt / Triglycerides Post Tt: post-treatment, 12 weeks; for HDL-C Pre Tt / LDL-C Pre Tt / Total Cholesterol Pre Tt / Triglycerides Pre Tt: pre-treatment
Procedure: (§1) The present clinical study is a prospective, randomized, double blind, placebo-controlled study. Patients of either sex, aged 30-65 years, fasting plasma glucose of 110-126 mg/dl, a glycosylated hemoglobin (HbA1c) between 6.5% and 8% and taking stable dose of anti-diabetic treatment (metformin 1500-2000 mg/day) for the past 8 weeks prior to the screening visit; and having endothelial dysfunction defined as ≤6% change in reflection index (RI) on post salbutamol challenge test were included in the study. Patients with severe uncontrolled hyperglyceamia, uncontrolled hypertension, cardiac arrhythmia, impaired hepatic or renal function, history of malignancy or stroke, smoking, chronic alcoholism, any other serious disease requiring active treatment and treatment with any other herbal supplements, were excluded from the study.
(§2) After screening, all the eligible subjects were randomized to receive either one of the three treatments orally for duration of 12 weeks—Group1—one capsule of Crominex®3+, 200 mcg once daily, Group 2—one capsule Crominex®3+, 400 mcg once daily; Group 3—one capsule of placebo once daily.
(§3) Subjects were required for follow up at 4, 8 and 12 weeks of therapy. At each visit they were evaluated for efficacy and safety. Pharmacodynamic evaluation for endothelial function was conducted at every visit. Blood samples were collected for evaluation of biomarkers before and at the end of treatment. Safety lab investigations for hematological, hepatic and renal biochemical parameters were conducted before and at the end of the study and also as and when required (in case of any adverse drug reaction (ADR). Subjects were enquired for the presence of ADR and the same was recorded in the case report form. Compliance to therapy was assessed by pill count method.
All the subjects had undergone complete physical examination, safety lab evaluations at baseline and at the end of the treatment. Samples were collected after an overnight fast of 12 hrs after the last dose of medication for determination of hemoglobin, glycosylated hemoglobin (HbA1c), blood urea, serum creatinine, liver function, lipid profile (Total cholesterol, High density lipoprotein cholesterol (HDL-C), low density lipoprotein cholesterol (LDL-C) using appropriate standard techniques.
(§4) When the results with Crominex® 3+ in the above two examples were highly significant, especially with the 400 mcg once daily dose in type 2 diabetics, two more clinical studies (EXAMPLES 3 & 4) were conducted at the same institute, following the same methodology as described earlier, on the individual components of Crominex® 3+, i.e., chromium chloride and Phyllanthus emblica+Shilajit, and other chromium supplements available in the market, i.e., chromium picolinate, chromium polynicotinate and chromium dinicocysteinate, in type 2 diabetics as well as in subjects with metabolic syndrome symptoms.

nitric oxide (NO) = experiment: Nitric oxide level, spectrophotometric, type 2 diabetics; type: in vivo, human; details: for NO: DM, 400 mcg; for Mean percentage change in NO / NO Post Tt / NO Pre Tt: type 2 diabetics (Example 3), chromium products 400 mcg; for Mean percentage change in NO: 12 week treatment; for NO Post Tt: post-treatment, 12 weeks; for NO Pre Tt: pre-treatment
Procedure: as §1, §2, §3
Nitric oxide, MDA, Glutathione and levels were estimated spectrophotometrically as follows. Malondialdehyde (MDA) levels were determined as described in Vidyasagar, et al., “Oxidative stress and antioxidant status in acute organophosphorous insecticide poisoning,” Indian J. Pharmacol. (April 2004) 36(2): 76-79. Glutathione levels were determined as described in G. L. Ellman, Arch. Biochem. Biophys. (1959) 82: 70-77 (original determination). Nitric oxide levels were estimated spectrophotometrically as described in Miranda, et al., “A Rapid, Simple Spectrophotometric Method for Simultaneous Detection of Nitrate and Nitrite,” NITRIC OXIDE: Biology and Chemistry (2001) Vol. 5, No. 1, pp. 62-71. hsCRP (high sensitivity C-reactive protein) was determined by ELISA method.
as §4

Row | Compound | HDL (lipid profile) [%] | LDL (lipid profile) [%] | TC (lipid profile) [%] | TG (lipid profile) [%] | Mean percentage change in HDL-C (lipid profile) | Mean percentage change in LDL-C (lipid profile) | Mean percentage change in Total Cholesterol (lipid profile) | Mean percentage change in Triglycerides (lipid profile) [NS %] | HDL-C Post Tt (lipid profile) | LDL-C Post Tt (lipid profile) | Total Cholesterol Post Tt (lipid profile) | Triglycerides Post Tt (lipid profile) | HDL-C Pre Tt (lipid profile) [mg/dL] | LDL-C Pre Tt (lipid profile) [mg/dL] | Total Cholesterol Pre Tt (lipid profile) [mg/dL] | Triglycerides Pre Tt (lipid profile) [mg/dL] | NO (nitric oxide (NO)) [%] | Mean percentage change in NO (nitric oxide (NO)) | NO Post Tt (nitric oxide (NO)) [μM/L] | NO Pre Tt (nitric oxide (NO)) [μM/L]
1 | chromium dinicocysteinate | 1.19 | −0.81 | −0.38 | −0.37 | 1.19 ± 4.01 NS % | −0.81 ± 1.52 $NS % | −0.38 ± 0.86 #NS % | −0.37 ± 0.92 | 37.83 ± 2.90 NS mg/dl | 128.91 ± 16.46 $^ mg/dl | 201.28 ± 17.29 NS mg/dl | 172.67 ± 3.88 NS mg/dl | 37.39 ± 2.43 | 130.00 ± 16.71 | 202.06 ± 17.48 | 173.33 ± 4.83 | 7.08 | 7.08 ± 2.40@NS % | 30.91 ± 2.87 | 28.88 ± 2.72
2 | chromium picolinate | 2.96 | −2.35 | −0.99 | −0.58 | 2.96 ± 3.38 @NS % | −2.35 ± 1.81 @NS % | −0.99 ± 1.08NS % | −0.58 ± 1.04 | 39.84 ± 1.12 $ mg/dl | 119.07 ± 18.46 mg/dL | 194.68 ± 17.93 $ mg/dl | 178.84 ± 8.45 $ mg/dl | 38.74 ± 1.69 | 121.92 ± 18.50 | 196.63 ± 18.07 | 179.89 ± 8.65 | 11.1 | 11.09 ± 4.73@NS % | 32.96 ± 2.54 | 29.75 ± 2.92
3 | chromium polynicotinate | −1.23 | −0.38 | −0.68 | −0.68 | −1.23 ± 3.71 @NS % | −0.38 ± 2.10 @NS % | −0.68 ± 1.21$NS % | −0.68 ± 0.83 | 38.65 ± 1.42 NS mg/dl | 123.32 ± 8.70 NS mg/dl | 198.00 ± 8.64 $^ mg/dl | 180.15 ± 3.84 @ mg/dl | 39.15 ± 1.23 | 123.97 ± 9.73 | 199.40 ± 9.25 | 181.40 ± 4.47 | 5.33 | 5.33 ± 2.25 #@NS % | 31.86 ± 2.55 | 30.26 ± 2.48
4 | O.O.O.O.O.O.[Cl][Cr]([Cl])[Cl] [Chromium chloride, Chromium chloride (CrCl3.6H2O)] | 2.79 | −1.3 | −0.28 | −0.49 | 2.79 ± 2.88 @NS % | −1.30 ± 1.42 NS % | −0.28 ± 0.81 #NS % | −0.49 ± 0.93 | 39.95 ± 2.72 mg/dL | 108.93 ± 10.40 mg/dL | 184.89 ± 9.67 NS mg/dl | 180.11 ± 7.80 $ mg/dl | 38.89 ± 2.85 | 110.33 ± 10.74 | 185.42 ± 9.68 | 181.00 ± 7.84 | 6.98 | 6.98 ± 10.15@NS % | 29.60 ± 2.65 | 27.74 ± 2.01
